In PubChem BioAssay AID449762 (Southern Research Specialized Biocontainment Screening …, 2010):
Records with an inconclusive call do not appear.

Tested on: M. tuberculosis H37Rv growth inhibition, 7H9 media
Assay: M. tuberculosis growth inhibition, HTS (AID 449762);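 note: bacterial growth assessed after seven days of incubation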
Conditions: for IC90: measured here: IC90 growth inhibition

| SMILES | IC90 [µM] | IC50 [µM] |
| --- | --- | --- |
| COC(=O)c1cccc(C#CC(NP(=O)(c2ccccc2)c2ccccc2)c2ccccc2)c1 (configuration not stated) | > 100 | – |
| C=CCn1c(O)c(N=Nc2ccccc2O)c2ccccc21 | 24.3 | 6.1 |
| O=[N+]([O-])c1cc(-c2ccc(/C=N\n3cnnc3)o2)cc([N+](=O)[O-])c1 | 1.86 | 0.65 |
| O=C(O)c1ccc(N2C(=O)/C(=C/c3ccc(-c4ccc([N+](=O)[O-])cc4)o3)C=C2c2ccccc2)cc1 | 40.2 | 17.2 |
| CCOc1ccc(-n2c(O)c(/C=N/Nc3nnc(C)c(=O)[nH]3)c3ccccc3c2=O)cc1 | > 100 | 11.3 |
| Cc1nn(Cc2ccccc2)c(C)c1NC(=O)c1cc2nc(-c3ccco3)cc(C(F)(F)F)n2n1 | > 100 | 46.5 |
| Cc1ccc(S(=O)(=O)N(C)c2ccc(OCC(=O)OCc3ccc(C#N)cc3)cc2)cc1 | 13.8 | 8.71 |
| COc1ccccc1N1CCN(CCCCOc2cccc3ccccc23)CC1 | 44.5 | 34 |
| CC(=O)Nc1ccc(N2C(C(C)=O)=NN(c3ccc(Cl)cc3)C2c2sccc2C)cc1 (configuration not stated) | 93.1 | 83.9 |
| CCOC(=O)CSc1nnc(NC(=O)c2ccc3c(c2)OCO3)s1 | 42.3 | 5.67 |
| Cc1ccc(NC(=O)Cn2ccsc2=N)c([N+](=O)[O-])c1 | 12.7 | 5.48 |
| Cc1ccc(C)c(S(=O)(=O)N2CCC(c3nc4c(nnn4Cc4ccc5c(c4)OCCO5)c(=O)[nH]3)CC2)c1 | > 100 | 23.1 |
| Cc1c(CCC(=O)NCCCn2ccnc2)c(=O)oc2c(C)c3occ(C(C)(C)C)c3cc12 | 36.3 | 23.1 |
| Cc1cc2oc3ccc(NCCCn4ccnc4)cc3c(=O)c2cc1C | 27.5 | 18.2 |
| COc1ccc(NS(=O)(=O)c2ccc3nc(COc4cccc5ccccc45)[nH]c3c2)cc1 | > 100 | 63.2 |
| CCn1cc([N+](=O)[O-])c(C(=O)N2N=C(c3ccc4ccccc4c3)CC2c2ccccc2O)n1 (configuration not stated) | > 100 | 49.6 |
| Cc1ccc(NN=C2c3ccccc3-c3ccccc32)cc1 | > 100 | 45.5 |
| CCOc1ncccc1C(=O)OCC(=O)N1CCc2ccccc21 | 15.4 | 6.15 |
| O=C1NN(c2ccc(Br)cc2)C(=O)/C1=C\c1ccc(O)cc1O | > 100 | 88.2 |
| Cc1cc(Br)ccc1NC(=O)c1cnc(N2CCN(c3ccccn3)CC2)c2ccccc12 | 3.49 | 1.24 |
| CN=c1scc(-c2ccccc2Br)n1/N=C/c1ccc[nH]1 | 54.2 | 50 |
| O=C(NCc1ccccn1)C(=O)Nc1nc(C23CC4CC(CC(C4)C2)C3)cs1 | 5.26 | 1.75 |

| SMILES | IC90 [µM] | IC50 [µM] |
| --- | --- | --- |
| CC[n+]1c(/C=C/N(C)c2ccccc2)n(-c2ccccc2)c2ccc(-c3nc4ccccc4s3)cc21 | 1.27 | 0.87 |
| Cc1ccc(-n2[nH]c(C)c(C=Nc3ccc(S(=O)(=O)Nc4nccs4)cc3)c2=O)c(C)c1 | 17 | 5.73 |
| Cc1[nH]n(S(=O)(=O)Cc2ccccc2)c(=O)c1N=Nc1ccccc1Cl | 8.53 | 5.57 |
| Cc1ccc(N2C(=O)C(F)(F)C2c2ccccc2)cc1 (configuration not stated) | 5.46 | 2.79 |
| COc1ccc(Cc2nnc(SCC(=O)N(c3ccccc3)C(C)C)n(N)c2=O)cc1 | 74.4 | 40.9 |
| CCc1cc(C(=O)NNC(=O)CCl)sc1C | 4.62 | 2.55 |
| COCCN(C(=O)C1CC(=O)N(Cc2ccccc2)C1)c1nc(-c2ccc([N+](=O)[O-])cc2)cs1 (configuration not stated) | 25.4 | 24.5 |
| CC(Sc1nnc(NC2CCCCC2)s1)C(=O)Nc1ccc2c(c1)C(=O)c1ccccc1C2=O (configuration not stated) | 12.6 | 11.5 |
| CC(/C=N/n1c(C2CCCCC2)n[nH]c1=S)=C\c1ccccc1 | 54.3 | 48.7 |
| O=C(CCSc1ccccn1)c1ccccc1 | 19.1 | 10.2 |
| Cc1ccccc1-n1sc2cc(F)ccc2c1=O | 22.5 | 18.6 |
| Cc1nonc1NC(=O)CSc1ccc(-c2ccccc2)nn1 | 52.9 | 21.1 |
| CCOC(=O)/C(=N/Nc1ccccc1)c1csc(Nc2ccccc2)n1 | > 100 | 34.6 |
| Cc1cccc(C(=O)NNC(=S)NC(=O)c2ccccc2)c1 | 2.82 | 0.59 |
| Cc1ccc(C#CC[N+]2(CC#Cc3ccc(C)cc3)CCCCC2)cc1 | 14.4 | 12.7 |
| Cc1cc(=O)oc2c(C)c(OCC(=O)N3CCN(C(=O)C4COc5ccccc5O4)CC3)ccc12 (configuration not stated) | 86.1 | 61.5 |
| O=S1(=O)CCC(N=Cc2ccc(-c3ccc(Cl)cc3)o2)C1 (configuration not stated) | > 100 | 54.8 |
| Cc1ccc(C)c(NNC(N)=S)c1 | 15.6 | 6.39 |
| Brc1ccc(N/N=C(/N=Nc2nn[nH]n2)c2ccccc2)cc1 | 22.1 | 14.2 |
| CC(C)C(=O)Nc1cccc(-c2nc3ccccc3c(=O)o2)c1 | > 100 | 44.3 |
| c1ccc(-c2nc(N3CCCC3)nc3ccccc23)cc1 | 51.8 | 37.5 |
| O=C(N/N=C/c1ccc([N+](=O)[O-])o1)c1sc2ccccc2c1Cl | 4.6 | 2.65 |

| SMILES | IC90 [µM] | IC50 [µM] |
| --- | --- | --- |
| COc1cc(/C=C/C(=O)c2c(O)n(CCc3ccccc3)c(=O)[nH]c2=O)ccc1O | 11.5 | 4.59 |
| CCCn1c(Nc2nc3ccccc3n2C)nc2ccccc21 | 88.7 | 83 |
| O=C(Nc1nnc(-c2ccccc2Cl)o1)c1nc2ccccc2s1 | 6.78 | 6.01 |
| CCCCCCCCCCC[N+](C)(C)CC/C=C1/c2ccccc2Sc2ccc(Cl)cc21 | 8.09 | 7.04 |
| CCCNc1nc(-c2cc(C(=O)Nc3ccccc3)on2)cc(C(C)C)n1 | 59.3 | 35 |
| CCOC(=O)c1ccc(NC(=O)CSc2ccc(-c3cccnc3)nn2)cc1 | > 100 | – |
| O=C(Nc1ccn(Cc2ccccc2F)n1)c1ccc(COc2ccccc2Cl)cc1 | 13.2 | 11.6 |
| O=C1Nc2ccc(Br)cc2C12NNc1ccccc1O2 (configuration not stated) | 43.6 | 23.3 |
| O=C(C[C@@H]1C/C=C\C[C@H](NC(=O)OCC2c3ccccc3-c3ccccc32)C(=O)OC[C@H]2CCCN2C1=O)N[C@@H](CO)Cc1ccccc1 | 28.2 | 16.1 |
| Cc1oc(C(=O)Nc2ccc(O)cc2)cc1COc1ccccc1 | 43.6 | 12.5 |
| Cn1nc(-c2ccccn2)nc2c(=O)n(C)c(=O)nc1-2 | 14.5 | 9.04 |
| O=C(Nc1ccccc1)C1=C[C@@H](C2CCCCC2)C[C@@H](OCc2ccc(CO)cc2)O1 | 50.2 | 45 |
| COc1ccc(SN=C2C(C)=CC(=O)C=C2C)cc1 | 13.5 | 11.9 |
| COc1ccc(N2CCN(C(=O)c3cc4c(C)nc5ccccc5c4o3)CC2)cc1 | 32.5 | 18.5 |
| COC(=O)CSc1nnc([C@H](CC(C)C)NC(=O)OC(C)(C)C)o1 | 32.9 | 14.5 |
| Cc1ccc(Nc2nc(N)nc(CN3CCc4ccccc4C3)n2)cc1 | 8.89 | 2.2 |
| COc1ccc(NCc2nnc(SCC(=O)c3ccc(OC)cc3)o2)cc1 | 13.4 | 7.11 |
| CCc1cc2c(=O)c(-c3cnn(-c4ccccc4)c3)c(C)oc2c(CN2CCCCC2)c1O | 21.7 | 2.58 |
| Cc1ccc(-c2noc(C3CCCN(C(=O)c4ccc(C(C)(C)C)cc4)C3)n2)o1 (configuration not stated) | 55.2 | 48.2 |
| Fc1ccc2[nH]c3c(NCc4ccccc4)ncnc3c2c1 | 26.7 | 23.5 |
| CNc1ccc2oc(C[C@H]3O[C@@]4(CC[C@H]3C)O[C@H]([C@H](C)C(=O)c3ccc[nH]3)[C@H](C)C[C@H]4C)nc2c1C(=O)O | 1.97 | 1.1 |
| CCOC(=O)CCCNC(=O)COC(=O)c1cc(Br)c(Br)s1 | > 100 | 9.86 |

| SMILES | IC90 [µM] | IC50 [µM] |
| --- | --- | --- |
| CCOC(=O)COc1cc(O)c2c(=O)cc(-c3ccccc3)oc2c1 | 2.33 | 0.68 |
| COC(=O)C(C)Oc1ccc(-c2nccc(-c3ccccn3)n2)cc1 (configuration not stated) | 4.04 | 1.73 |
| Cc1ccc(C(=O)OCc2nnc(-c3ccccc3)o2)s1 | 33.5 | 19 |
| COc1ccc(-c2cc(-c3ccc(OC)cc3)[nH]n2)cc1 | 1 | 0.33 |
| COc1ccc(NC(=O)c2oc3ccc(S(=O)(=O)N4CCOCC4)cc3c2C)cc1 | 7.38 | 0.68 |
| C(=N\NC1=Nc2cccc3cccc1c23)/c1cccnc1 | > 100 | 13.4 |
| COc1ccc(-c2c(C#N)c(SCC(=O)c3cc4ccccc4oc3=O)nc(C)c2C(=O)Nc2ccccc2)cc1 | 75.6 | 45.9 |
| COC(=O)CC(=O)N1CCN(c2ccc(Cl)c(Cl)c2)CC1 | 55 | 20 |
| CCOC(=O)CSCC(=O)N1CCC(Cc2ccccc2)CC1 | 19.6 | 5.35 |
| O=C1c2ccccc2-c2onc3ccc(Oc4ccccc4)c1c23 | 10.9 | 5.64 |
| CCCc1ccc2oc(C(=O)N(C)Cc3nccs3)c(C)c2c1 | 60.3 | 32.1 |
| O=C(OCn1nnc2ccccc2c1=O)C1CCCCC1 | 7.16 | 3.56 |
| CC(C)CC[n+]1ccccc1/C=C/c1ccc(N(C)C)cc1 | 8.41 | 5.3 |
| CC(C)(C)c1ccc(C(=O)N2CCN(CCNC(=O)C(=O)NCc3ccc(Cl)cc3)CC2)cc1 | 28.3 | 22.7 |
| CCc1nc(N2CCN(C(C)=O)CC2)c2c3c(sc2n1)CC(C(C)(C)C)CC3 (configuration not stated) | 14.1 | 12.8 |
| CCCC(/C=C/c1ccc(OC(C)=O)cc1)=C1/c2ccccc2C(=O)N1c1ccccc1 | 16.1 | 8.07 |
| Cn1c(=O)c2c3c(sc2n2c(SCC(N)=O)nnc12)CC(C(C)(C)C)CC3 (configuration not stated) | 32.9 | 19.4 |
| Oc1ccc(C[C@H]2CNCCN2CCCCC2CCCCC2)cc1 | 59.2 | 31.5 |
| Cc1cc(/C=C\c2ccc3cc(N(C)C)ccc3[n+]2C)c(C)n1-c1ccccc1 | 3.19 | 1.86 |
| NC(=S)N=Nc1ccc(NN=C(N)N)cc1 | 24.7 | 16.9 |
| CCOC(=O)Cn1c(-c2ccccc2)ccc(C#N)c1=O | > 100 | 4.51 |
